Paper PMC8301544, “A randomized, double‐blind, placebo‐ and positive‐controlled crossover study of the effects of durlobactam on cardiac repolarization in healthy subjects” (Clinical and Translational Science, 2021)
Where two headings read alike, the source gives them in different places.

Legend:
[1] = tested on: healthy subjects; assay: Cardiodynamic evaluation, 12-lead 24-h Holter ECG (QTcF, HR, categorical outliers); settings: for subjects with QTcF greater than 450 ms and less than or equal to 480 ms: single dose durlobactam 4 g i.v. or moxifloxacin 400 mg oral; for mean placebo-corrected ΔHR (ΔΔHR) / placebo-corrected change from baseline QTcF (ΔΔQTcF): durlobactam 4 g i.v.; for placebo-corrected change from baseline QTcF (ΔΔQTcF): mean ± spread (90% CI)
Description: This was a partially double‐blind study in healthy adult subjects, which was conducted as a placebo‐ and active‐controlled, single‐infusion, three‐way crossover study. […] Study treatments were administered in the fasted state on day 1 of each treatment period. A 7 (±2) day washout period occurred between successive treatments. Subjects, investigator, and sponsor were blinded to durlobactam and placebo treatment assignment. Moxifloxacin was administered open‐label.
Variables associated with the primary ECG end point, placebo‐corrected change‐from‐baseline QTcF (ΔΔQTcF), were computed from means of measurements made on multiple replicate ECGs extracted at scheduled timepoints from Holter 12‐lead ECG data. Holter 12‐lead ECGs were read centrally (ERT, Rochester, NY). ECG end points included change‐from‐baseline HR, QTcF, PR, and QRS (ΔHR, ΔQTcF, ΔPR, and ΔQRS); placebo‐corrected change‐from‐baseline HR, PR, and QRS (ΔΔHR, ΔΔPR, and ΔΔQRS); categorical outliers for QTcF, HR, PR, and QRS; and frequency of treatment‐emergent changes of T‐wave morphology and U‐wave presence.
During each treatment period, 12‐lead, 24‐h Holter ECGs were continuously recorded and evaluated by a central ECG laboratory.

[2] = tested on: healthy subjects; assay: Safety and tolerability (adverse events); assay type: in vivo, human; settings: for serious AEs, discontinuation for AEs, deaths: all treatment groups; for incidence of at least one AE: single dose durlobactam 4 g i.v. or moxifloxacin 400 mg oral
Description: Safety was assessed from vital signs (systolic/diastolic blood pressure, HR, respiratory rate, and body temperature), physical examination, clinical laboratory tests (serum chemistry, hematology, and urinalysis), 12‐lead safety ECGs, and adverse events (AEs).

[3] = Plasma pharmacokinetics after single dose in healthy subjects (LC-MS/MS, noncompartmental analysis); assay type: in vivo, human
Description: Moxifloxacin was administered open‐label.
Plasma concentrations less than the lower limit of quantification were reported as 0. Plasma concentrations of durlobactam were determined by validated liquid chromatography with tandem mass spectrometry (LC‐MS/MS) assays operated in the negative ion mode (method number M8351072B) performed at Covance (Salt Lake City, UT). For durlobactam, the quantitation range was 5–5000 ng/ml. Moxifloxacin plasma concentrations were determined by LC‐MS/MS operated in the positive ion mode (method number 180M001.01) performed at Pharmaron ABS (Germantown, PA). The quantitation range was 1–1000 ng/ml.
PK parameters were determined with noncompartmental analysis using Phoenix WinNonlin (version 7.0 or higher), and PK parameters were compared with SAS version 9.3 or higher.

[4] = tested on: healthy subjects
Description: The relationship between durlobactam plasma concentration and change‐from‐baseline QTcF (ΔQTcF) was investigated by a linear mixed‐effects modeling approach with a treatment effect‐specific intercept. […] The geometric mean of the individual Cmax values for subjects on the active dose were determined.

[5] = patients with complicated urinary tract infection, durlobactam/sulbactam 1 g every 6 h for 7 days; cited from earlier work
[6] = Single dose study in subjects with varying degrees of renal impairment; assay type: in vivo, human; settings: severe renal impairment category (CLcr = 0-15 ml/min)
[7] = set-up: method as in PMID 32284380; settings: multiple dose regimen for 11 days, 1 g i.v. dose; cited from earlier work
[8] = tested on: class A, C, and D β-lactamases; settings: cited from earlier work
[9] = single dose, normal renal function; cited from earlier work

With COc1c(N2C[C@@H]3CCCN[C@@H]3C2)c(F)cc2c(=O)c(C(=O)O)cn(C3CC3)c12 [moxifloxacin, reference compound] the “subjects with QTcF greater than 450 ms and less than or equal to 480 ms” value [1] was 6.5%, the “subjects with ΔQTcF greater than 30 ms and less than or equal to 60 ms” value ([1]; single dose moxifloxacin 400 mg oral) was 6.5% and the “serious AEs, discontinuation for AEs, deaths” value [2] was “No serious AEs, discontinuation for AEs, or deaths occurred”. The “incidence of at least one AE” value [2] was 22.6%, the Cmax ([3]; human, plasma, po, 400 mg, moxifloxacin single 400 mg oral dose, read-out: mean Cmax) was 2.18 µg/mL and the Tmax ([3]; human, plasma, po, 400 mg, moxifloxacin single 400 mg oral dose, read-out: time to peak plasma concentration) was about 1.9 h. For the same compound, the AUC(0-t) ([3]; human, plasma, moxifloxacin single 400 mg oral dose, read-out: mean AUC0-last) was 22.6 µg·h/mL, the “geometric mean peak concentration” value ([3]; moxifloxacin single 400 mg oral dose) was 2103.4 ng/mL and the “slope of the concentration-QTc relationship” value ([4]; human, in vivo) was 0.0065 ms per ng/ml. It also gave a treatment effect-specific intercept ([4]; human, in vivo) of 0.4 ms.

In the case of CC1=C[C@@H]2CN(C(=O)N2OS(=O)(=O)O)[C@@H]1C(N)=O [durlobactam], the Cmax [5] is listed as 39,900 ng/ml, the “estimated Cmax from linear regression of dose normalized Cmax versus creatinine clearance” value [6] is listed as 60,000 ng/ml and the Cmax [7] is listed as 28.1 µg/mL. The “mean placebo-corrected ΔHR (ΔΔHR)” value ([1]; 3 h post-start-of-infusion) was −2.6 bpm, the “mean placebo-corrected ΔHR (ΔΔHR)” value ([1]; 4 h post-start-of-infusion) was −0.2 bpm and the “placebo-corrected change from baseline QTcF (ΔΔQTcF)” value (“placebo-corrected change … (ΔΔQTcF)” for short) ([1]; 6 h) was 1.8 ms. For the same compound, the “placebo-corrected change … (ΔΔQTcF)” value ([1]; 8 h) was 1.8 ms, the “placebo-corrected change … (ΔΔQTcF)” value ([1]; 24 h) was 0.0 ms and the “effect on HR” value ([1]; durlobactam 4 g supratherapeutic dose) was “no clinically relevant effect on HR”. For the same compound, the “subjects with QTcF greater than 450 ms and less than or equal to 480 ms” value [1] was 3.2%, the β-lactamase inhibition [8] was “inhibits class A, C, and D β‐lactamases” and the Cmax [9] was 27,000 ng/ml. The “serious AEs, discontinuation for AEs, deaths” value [2] was “No serious AEs, discontinuation for AEs, or deaths occurred”, the “incidence of fatigue (AE)” value ([2]; durlobactam 4 g i.v., 2 subjects) was 6.5% and the “incidence of at least one AE” value [2] was 19.4%. For the same compound, the “Vz (volume of distribution)” value ([3]; durlobactam 4 g single 3-h i.v. infusion, n = 31, mean) was 33.6 ± 5.2 L, the Tmax ([3]; durlobactam 4 g single 3-h i.v. infusion, n = 31, mean, after start of infusion) was 3.1 ± 0.32 h and the Cmax ([3]; human, plasma, iv, 4 g, durlobactam 4 g single 3-h i.v. infusion, healthy subjects, n = 31, mean, read-out: Cmax) was 108 µg/mL. For the same compound, the Tmax ([3]; human, plasma, iv, 4 g, durlobactam 4 g single 3-h i.v. infusion, n = 31, mean, after start of infusion, read-out: Tmax) was about 3 h, the Vd ([3]; human, plasma, iv, 4 g, durlobactam 4 g single 3-h i.v. infusion, n = 31, mean, read-out: Vz (volume of distribution)) was 33.6 L and the Cmax ([3]; human, plasma, iv, 4 g, durlobactam 4 g single 3-h i.v. infusion, read-out: observed geometric mean Cmax) was 106 µg/mL. The AUC(0-inf) ([3]; human, plasma, iv, durlobactam 4 g single 3-h i.v. infusion, n = 31, mean) was 413 µg·h/mL, the AUC(0-t) ([3]; human, plasma, iv, durlobactam 4 g single 3-h i.v. infusion, n = 31, mean, read-out: AUC0-24) was 413 µg·h/mL and the clearance ([3]; human, plasma, iv, durlobactam 4 g single 3-h i.v. infusion, n = 31, mean, read-out: CL (total body clearance) (converted)) was about 165 mL/min. For the same compound, the half-life ([3]; human, plasma, iv, durlobactam 4 g single 3-h i.v. infusion, read-out: mean apparent half-life (converted)) was 2.3 h, the “fold increase of mean Cmax (4 g dose) above maximum Cmax predicted with a 1 g dose” value ([3]; patients with normal renal function) was about 3.2 fold and the “fold increase of mean Cmax (4 g dose) above maximum Cmax predicted with a 1 g dose” value ([3]; patients with severe renal impairment) was about 1.5 fold. The “plasma concentration up to which an effect on ΔΔQTcF exceeding 10 ms was excluded” value ([4]; durlobactam) was ~190,000 ng/ml, the “effect on ECG parameters including QT interval prolongation (C-QT analysis)” value ([4]; durlobactam 4 g i.v. over 3 h) was “no significant effect” and the “fold of excluded concentration (190,000 ng/ml) over therapeutic plasma concentrations” value ([4]; durlobactam, planned dose of 1 g) was “over 3 fold”. The treatment effect-specific intercept ([4]; durlobactam, not statistically significant) was 0.6 ms and the “estimated slope of the plasma concentration-QTc relationship” value ([4]; durlobactam, not statistically significant, 90% CI -0.0000232 to 0.0000194) was −0.0000019 ms per ng/ml.
